Data: patent publication US9133148B2, “Carbamate compounds and of making and using same” (Abide Therapeutics, Inc., priority 2012, dated 2015)

Legend:
Format in all cases: biochemical
[1] = molecular target: MAGL (Mus musculus (Mouse), UniProt O35678); experiment: In vitro competitive activity-based protein profiling (FP-Rh), mouse MAGL; conditions: mouse brain membrane proteome, competitive ABPP (Table 7)
Method: (§1) In Vitro Competitive Activity-Based Protein Profiling.
(§2) Proteomes (mouse brain membrane fraction or cell lysates) ([…], 1.0 mg/mL total protein concentration) were preincubated with varying concentrations of inhibitors at 37° C. After 30 min, FP-Rh (1.0 μL, 50 μM in DMSO) was added and the mixture was incubated for another 30 min at 37° C. Reactions were quenched with SDS loading buffer (50 μL—4×) and run on SDS-PAGE.

[2] = molecular target: FAAH (Mus musculus (Mouse), UniProt O08914); experiment: In vitro competitive activity-based protein profiling (FP-Rh), mouse FAAH; conditions: mouse brain membrane proteome
Chain of FAAH (O08914 whole entry): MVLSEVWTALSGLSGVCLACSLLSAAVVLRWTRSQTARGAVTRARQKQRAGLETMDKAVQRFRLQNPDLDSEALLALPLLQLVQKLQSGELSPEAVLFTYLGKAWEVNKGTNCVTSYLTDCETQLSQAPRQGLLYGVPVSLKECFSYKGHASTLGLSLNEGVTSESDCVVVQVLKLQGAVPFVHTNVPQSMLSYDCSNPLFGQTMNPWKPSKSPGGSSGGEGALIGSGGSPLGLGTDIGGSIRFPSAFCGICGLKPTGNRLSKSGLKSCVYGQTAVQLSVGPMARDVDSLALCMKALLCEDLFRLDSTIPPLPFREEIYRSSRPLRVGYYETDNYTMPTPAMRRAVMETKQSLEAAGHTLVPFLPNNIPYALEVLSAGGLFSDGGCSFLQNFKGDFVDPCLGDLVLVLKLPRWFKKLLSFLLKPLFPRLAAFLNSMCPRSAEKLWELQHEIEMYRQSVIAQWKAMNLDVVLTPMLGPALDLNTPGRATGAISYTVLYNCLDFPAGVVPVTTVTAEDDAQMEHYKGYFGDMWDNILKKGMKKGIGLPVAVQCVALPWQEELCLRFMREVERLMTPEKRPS
Method: as §1, §2

[3] = molecular target: ABHD6 (Mus musculus (Mouse), UniProt Q8R2Y0); experiment: In vitro competitive activity-based protein profiling (FP-Rh), mouse ABHD6; conditions: mouse brain membrane proteome
Chain of ABHD6 (Q8R2Y0 whole entry): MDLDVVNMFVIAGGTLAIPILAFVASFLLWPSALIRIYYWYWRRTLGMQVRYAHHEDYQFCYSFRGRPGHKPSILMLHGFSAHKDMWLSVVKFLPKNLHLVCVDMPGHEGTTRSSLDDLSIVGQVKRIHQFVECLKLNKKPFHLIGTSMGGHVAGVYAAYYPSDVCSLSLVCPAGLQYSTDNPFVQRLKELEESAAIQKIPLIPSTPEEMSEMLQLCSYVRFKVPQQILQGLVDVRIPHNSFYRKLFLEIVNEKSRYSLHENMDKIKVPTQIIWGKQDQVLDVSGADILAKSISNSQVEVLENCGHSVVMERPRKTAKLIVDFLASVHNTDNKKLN
Method: as §1, §2

Chain of MAGL (O35678 whole entry): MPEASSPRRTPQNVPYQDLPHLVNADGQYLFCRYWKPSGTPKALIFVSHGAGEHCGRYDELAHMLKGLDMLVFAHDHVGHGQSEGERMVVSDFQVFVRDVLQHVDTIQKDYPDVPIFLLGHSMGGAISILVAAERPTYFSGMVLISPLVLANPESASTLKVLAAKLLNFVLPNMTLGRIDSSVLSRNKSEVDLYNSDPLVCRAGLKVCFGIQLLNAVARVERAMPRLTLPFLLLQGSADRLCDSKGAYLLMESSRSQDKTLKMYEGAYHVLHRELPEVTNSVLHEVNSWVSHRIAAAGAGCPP

Compound | IC50 [1] | IC50 ([2]; competitive ABPP (Table 7)) | IC50 ([3]; competitive ABPP (Table 7)) | further results
O=C(OC(C(F)(F)F)C(F)(F)F)N1CCN(Cc2ccc(-c3ccccc3)cc2N2CCOCC2)CC1 [Example 11f, 1,1,1,3,3,3-hexafluoropropan-2-yl 4-((3-morpholino-[1,1′-biphenyl]-4-yl)methyl)piperazine-1-carboxylate] | > 1000 nM | – | – | –
COc1cc(-c2ccccc2)ccc1CN1CCN(C(=O)OC(C(F)(F)F)C(F)(F)F)CC1 [Example 11j, 1,1,1,3,3,3-hexafluoropropan-2-yl 4-[(2-methoxy-4-phenylphenyl)methyl]piperazine-1-carboxylate] | < 100 nM | > 10000 nM | > 1000 nM | –
O=C(Oc1ccc([N+](=O)[O-])cc1)N1CCC(C(O)(c2ccc3c(c2)OCO3)c2ccc3c(c2)OCO3)CC1 [A, 4-nitrophenyl 4-(dibenzo[d][1,3]dioxol-5-yl(hydroxy)methyl)piperidine-1-carboxylate, reference compound] | – | – | – | IC50 ([2]; competitive ABPP): 4700 nM; IC50 ([3]; competitive ABPP): 100 to 1000 nM
CC(=O)N1CCN(c2cc(Cl)ccc2CN2CCN(C(=O)OC(C(F)(F)F)C(F)(F)F)CC2)CC1 [Example 9aw, 1,1,1,3,3,3-hexafluoropropan-2-yl 4-(2-(4-acetylpiperazin-1-yl)-4-chlorobenzyl)piperazine-1-carboxylate] | 100 to 1000 nM | > 10000 nM | > 1000 nM | –
O=C(OC(C(F)(F)F)C(F)(F)F)N1CCN(Cc2ccc(N3CCCC3)cc2)CC1 [Example 9g, 1,1,1,3,3,3-hexafluoropropan-2-yl 4-(4-(pyrrolidin-1-yl)benzyl)piperazine-1-carboxylate] | 100 to 1000 nM | > 10000 nM | > 1000 nM | –
O=C(OC(C(F)(F)F)C(F)(F)F)N1CCN(C(c2ccc(Cl)cc2)c2ccc(Cl)cc2)CC1 [Example 2b, 1,1,1,3,3,3-hexafluoropropan-2-yl 4-(bis(4-chlorophenyl)methyl)-piperazine-1-carboxylate] | – | – | – | IC50 ([2]; competitive ABPP): > 10000 nM
CN(C)C(=O)c1cc(-c2ccccc2)ccc1CN1CCN(C(=O)OC(C(F)(F)F)C(F)(F)F)CC1 [Example 11x, 1,1,1,3,3,3-hexafluoropropan-2-yl 4-[[2-(dimethylcarbamoyl)-4-phenylphenyl]methyl]piperazine-1-carboxylate] | 100 to 1000 nM | > 10000 nM | > 1000 nM | –
Cc1cc(N2CCOCC2)ccc1CN1CCN(C(=O)OC(C(F)(F)F)C(F)(F)F)CC1 [Example 9p, 1,1,1,3,3,3-hexafluoropropan-2-yl 4-(2-methyl-4-morpholinobenzyl)piperazine-1-carboxylate] | < 100 nM | – | – | –
O=C(OC(C(F)(F)F)C(F)(F)F)N1CCN(Cc2ccc(Br)cc2N2CCCC2)CC1 [Example 9x, 1,1,1,3,3,3-hexafluoropropan-2-yl 4-(4-bromo-2-(pyrrolidin-1-yl)benzyl)piperazine-1-carboxylate] | – | > 250 nM | – | –
Cc1cc(N2CCCC2)ccc1CN1CCN(C(=O)OC(C(F)(F)F)C(F)(F)F)CC1 [Example 9u, 1,1,1,3,3,3-hexafluoropropan-2-yl 4-(2-methyl-4-(pyrrolidin-1-yl)benzyl)piperazine-1-carboxylate] | 100 to 1000 nM | > 6250 nM | > 1000 nM | –
O=C(OC(C(F)(F)F)C(F)(F)F)N1CCN(Cc2ccc(N3CCOCC3)cc2F)CC1 [Example 9a, 1,1,1,3,3,3-hexafluoropropan-2-yl 4-(2-fluoro-4-morpholinobenzyl)piperazine-1-carboxylate] | 100 to 1000 nM | > 10000 nM | 100 to 1000 nM | –
O=C(OC(C(F)(F)F)C(F)(F)F)N1CCN(Cc2cc(-c3ccccc3)on2)CC1 [Example 10b, 1,1,1,3,3,3-hexafluoropropan-2-yl 4-((5-phenylisoxazol-3-yl)methyl)piperazine-1-carboxylate] | 100 to 1000 nM | – | – | –
O=C(OC(C(F)(F)F)C(F)(F)F)N1CCN(Cc2ccc(C(=O)N3CCC3)cc2Cl)CC1 [Example 9be, 1,1,1,3,3,3-hexafluoropropan-2-yl 4-(4-(azetidine-1-carbonyl)-2-chlorobenzyl)piperazine-1-carboxylate] | 100 to 1000 nM | > 10000 nM | 100 to 1000 nM | –
O=C(OC(C(F)(F)F)C(F)(F)F)N1CCN(Cc2cccc(Cl)c2N2CCOCC2)CC1 [Example 9ad, 1,1,1,3,3,3-hexafluoropropan-2-yl 4-[[3-chloro-2-(morpholin-4-yl)phenyl]methyl]piperazine-1-carboxylate] | – | > 10000 nM | – | –
O=C(OC(C(F)(F)F)C(F)(F)F)N1CCN(Cc2ccc(-n3cccn3)c(F)c2)CC1 [Example 9az, 1,1,1,3,3,3-hexafluoropropan-2-yl 4-(3-fluoro-4-(1H-pyrazol-1-yl)benzyl)piperazine-1-carboxylate] | 100 to 1000 nM | > 10000 nM | 100 to 1000 nM | –
O=C(OC(C(F)(F)F)C(F)(F)F)N1CCN(Cc2ccc(N3CCCC3)c(F)c2)CC1 [Example 9aa, 1,1,1,3,3,3-hexafluoropropan-2-yl 4-(3-fluoro-4-(pyrrolidin-1-yl)benzyl)piperazine-1-carboxylate] | 100 to 1000 nM | > 10000 nM | 100 to 1000 nM | –
Cc1cc(Cl)ccc1C(c1ccc(Cl)cc1C)N1CCN(C(=O)OC(C(F)(F)F)C(F)(F)F)CC1 [Example 2j, 1,1,1,3,3,3-hexafluoropropan-2-yl 4-(bis(4-chloro-2-methylphenyl)methyl)piperazine-1-carboxylate] | – | – | – | IC50 ([2]; competitive ABPP): > 10000 nM; IC50 ([3]; competitive ABPP): > 1000 nM

Compound | IC50 [1] | IC50 ([2]; competitive ABPP (Table 7)) | IC50 ([3]; competitive ABPP (Table 7)) | further results
O=C(OC(C(F)(F)F)C(F)(F)F)N1CCN(Cc2ccc(Br)cc2N2CCCCC2)CC1 [Example 9q, 1,1,1,3,3,3-hexafluoropropan-2-yl 4-(4-bromo-2-(piperidin-1-yl)benzyl)piperazine-1-carboxylate] | 100 to 1000 nM | – | – | –
Cn1nc(-c2ccccc2)cc1CN1CCN(C(=O)OC(C(F)(F)F)C(F)(F)F)CC1 [Example 10d, 1,1,1,3,3,3-hexafluoropropan-2-yl 4-((1-methyl-3-phenyl-1H-pyrazol-5-yl)methyl)piperazine-1-carboxylate] | – | > 10000 nM | – | –
Cn1cc(CN2CCN(C(=O)OC(C(F)(F)F)C(F)(F)F)CC2)c(-c2ccccc2Cl)n1 [l0g, 1,1,1,3,3,3-hexafluoropropan-2-yl 4-[[3-(2-chlorophenyl)-1-methyl-1H-pyrazol-4-yl]methyl]piperazine-1-carboxylate] | – | > 10000 nM | – | –
O=C(OC(C(F)(F)F)C(F)(F)F)N1CCN(C(c2cocn2)c2cocn2)CC1 [Example 2i, 1,1,1,3,3,3-hexafluoropropan-2-yl 4-(bis(oxazol-4-yl)methyl)piperazine-1-carboxylate] | – | – | – | IC50 ([2]; competitive ABPP): > 6000 nM
Cn1ncc(Br)c1CN1CCN(C(=O)OC(C(F)(F)F)C(F)(F)F)CC1 [Example 10f, 1,1,1,3,3,3-hexafluoropropan-2-yl 4-((4-bromo-1-methyl-1H-pyrazol-5-yl)methyl)piperazine-1-carboxylate] | 100 to 1000 nM | – | – | –
Cn1cc(CN2CCN(C(=O)OC(C(F)(F)F)C(F)(F)F)CC2)c(-c2ccccc2)n1 [Example 10e, 1,1,1,3,3,3-hexafluoropropan-2-yl 4-((1-methyl-3-phenyl-1H-pyrazol-4-yl)methyl)piperazine-1-carboxylate] | – | > 10000 nM | – | –
O=C(OC(C(F)(F)F)C(F)(F)F)N1CCN(C(c2cccnc2)c2cccnc2)CC1 [Example 2l, 1,1,1,3,3,3-hexafluoropropan-2-yl 4-(di(pyridin-3-yl)methyl)piperazine-1-carboxylate] | – | – | – | IC50 ([2]; competitive ABPP): > 10000 nM
O=C(OC(C(F)(F)F)C(F)(F)F)N1CCN(Cc2ccc(Cl)cc2N2CCOCC2)CC1 [Example 9t, 1,1,1,3,3,3-hexafluoropropan-2-yl 4-(4-chloro-2-morpholinobenzyl)piperazine-1-carboxylate] | – | > 6250 nM | – | –
O=C(OC(C(F)(F)F)C(F)(F)F)N1CCN(Cc2ccc(Br)cc2N2CCOCC2)CC1 [Example 9r, 1,1,1,3,3,3-hexafluoropropan-2-yl 4-(4-bromo-2-morpholinobenzyl)piperazine-1-carboxylate] | < 100 nM | – | – | –
O=C(OC(C(F)(F)F)C(F)(F)F)N1CCN(Cc2ccc(C(F)(F)F)cc2N2CCOCC2)CC1 [Example 9c, 1,1,1,3,3,3-hexafluoropropan-2-yl 4-[[2-(morpholin-4-yl)-4-(trifluoromethyl)phenyl]methyl]piperazine-1-carboxylate] | – | > 10000 nM | – | –
O=C(OC(C(F)(F)F)C(F)(F)F)N1CCN(Cc2ccc(C(F)(F)F)cc2N2CCCC2)CC1 [Example 9aq, 1,1,1,3,3,3-hexafluoropropan-2-yl 4-(2-(pyrrolidin-1-yl)-4-(trifluoromethyl)benzyl)piperazine-1-carboxylate] | – | > 10000 nM | – | –
O=C(OC(C(F)(F)F)C(F)(F)F)N1CCN(Cc2ccc(Cl)cc2N2CCCC2)CC1 [Example 9z, 1,1,1,3,3,3-hexafluoropropan-2-yl 4-(4-chloro-2-(pyrrolidin-1-yl)benzyl)piperazine-1-carboxylate] | – | > 10000 nM | – | –
O=C(OC(C(F)(F)F)C(F)(F)F)N1CCN(Cc2cc(Cl)ccc2N2CCOCC2)CC1 [Example 9ag, 1,1,1,3,3,3-hexafluoropropan-2-yl 4-[[5-chloro-2-(morpholin-4-yl)phenyl]methyl]piperazine-1-carboxylate] | – | > 10000 nM | > 1000 nM | –
O=C(OC(C(F)(F)F)C(F)(F)F)N1CCN(Cc2ccccc2N2CCOCC2)CC1 [Example 9y, 1,1,1,3,3,3-hexafluoropropan-2-yl 4-(2-morpholinobenzyl)piperazine-1-carboxylate] | < 100 nM | > 250 nM | – | –
CN(Cc1cccc(-c2ccncc2)c1)C(=O)OC(C(F)(F)F)C(F)(F)F [Example 3f, 1,1,1,3,3,3-hexafluoropropan-2-yl methyl(3-(pyridin-4-yl)benzyl)-carbamate] | – | – | – | IC50 ([2]; competitive ABPP): > 10000 nM; IC50 ([3]; competitive ABPP): 100 to 1000 nM
Cc1nn(-c2ccccc2)cc1CN1CCN(C(=O)OC(C(F)(F)F)C(F)(F)F)CC1 [Example 10c, 1,1,1,3,3,3-hexafluoropropan-2-yl 4-((3-methyl-1-phenyl-1H-pyrazol-4-yl)methyl)piperazine-1-carboxylate] | – | > 6250 nM | – | –
